Assay results reported in patent US11530180B2, “Alpha-5 beta-1 inhibitors” (The Regents of the University of California, priority 2019, dated 2022).

Target: alpha-5-beta-1 integrin (Homo sapiens (Human), UniProt P05556+P08648)
Experiment: alpha-5-beta-1 integrin cell adhesion assay (SW480 cells on human plasma fibronectin)
Assay type: cell-based
Protocol: Cell Adhesion Assay. Evaluation of cell attachment to extracellular matrix proteins was performed as previously described by Yokosaki et al, J. Biol. Chem., 271: (39): 24144-24150 (1996). Briefly, wells of non-tissue culture-treated polystyrene 96-well flat-bottom microtiter plates (Linbro/Titertek, Flow Laboratories, McLean, Va.) were coated by incubation with 100 μl of each substrate in PBS at 37° C. for 1 hour. 96-well flat-bottomed tissue culture plates were coated with human plasma fibronectin for 1 hour at 37° C. After incubation, wells were washed with PBS, then blocked with 1% bovine serum albumin (BSA) for one hour. Control wells were filled with 1% BSA. SW480 cells were detached using 10 mM EDTA and resuspended in serum-free DMEM. For blocking experiments, cells were incubated with 10 μg/ml of the antibody for 15 minutes at 4° C. before plating. The plates were centrifuged at 10 g for 5 minutes before incubation for 1 hour at 37° C. in humidified 5% CO2. Nonadherent cells were removed by centrifugation (top side down) at 10 g for 5 minutes. Attached cells were stained with 0.5% crystal violet, and the wells were washed with PBS. The relative number of cells in each well was evaluated after solubilization in 40 μl of 2% Triton X-100 by measuring absorbance at 595 nm in a microplate reader. All determinations were carried out in triplicate.
Table 2 provides the IC50 (nM) results of an alpha-5-beta-1 integrin cell adhesion assay for the compounds shown. The assay was performed following the procedures set forth in Example 1 and as described by Yokosaki et al, J. Biol. Chem., 271: (39): 24144-24150 (1996).

[1] = alpha-5-beta-1 integrin cell adhesion assay following Example 1, Table 2
[2] = cell adhesion assay, SW480 cells, fibronectin-coated plates, Table 1

Chain of alpha-5-beta-1 integrin (P08648 42-894): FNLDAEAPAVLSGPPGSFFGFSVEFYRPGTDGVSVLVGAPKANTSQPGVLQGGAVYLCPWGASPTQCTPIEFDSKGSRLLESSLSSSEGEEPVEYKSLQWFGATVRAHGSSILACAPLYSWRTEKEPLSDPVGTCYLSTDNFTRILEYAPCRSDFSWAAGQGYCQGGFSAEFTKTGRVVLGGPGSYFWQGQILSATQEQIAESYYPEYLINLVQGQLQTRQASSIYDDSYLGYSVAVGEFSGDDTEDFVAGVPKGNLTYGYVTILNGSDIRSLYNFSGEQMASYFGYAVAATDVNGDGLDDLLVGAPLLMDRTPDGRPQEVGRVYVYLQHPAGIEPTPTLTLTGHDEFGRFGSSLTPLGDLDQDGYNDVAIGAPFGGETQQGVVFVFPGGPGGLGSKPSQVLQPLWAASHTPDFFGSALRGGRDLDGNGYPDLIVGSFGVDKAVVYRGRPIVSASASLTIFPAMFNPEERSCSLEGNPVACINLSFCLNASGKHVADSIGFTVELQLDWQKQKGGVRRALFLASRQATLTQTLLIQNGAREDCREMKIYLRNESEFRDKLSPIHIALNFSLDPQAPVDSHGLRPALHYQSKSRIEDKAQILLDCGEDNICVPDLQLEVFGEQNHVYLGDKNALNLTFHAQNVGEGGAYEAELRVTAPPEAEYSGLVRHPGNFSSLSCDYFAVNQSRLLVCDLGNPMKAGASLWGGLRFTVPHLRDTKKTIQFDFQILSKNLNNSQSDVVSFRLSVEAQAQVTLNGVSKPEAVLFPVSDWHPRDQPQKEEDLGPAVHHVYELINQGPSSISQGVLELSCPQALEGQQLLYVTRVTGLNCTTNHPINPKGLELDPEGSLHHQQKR
Chain of alpha-5-beta-1 integrin (P08648 895-1049 partner): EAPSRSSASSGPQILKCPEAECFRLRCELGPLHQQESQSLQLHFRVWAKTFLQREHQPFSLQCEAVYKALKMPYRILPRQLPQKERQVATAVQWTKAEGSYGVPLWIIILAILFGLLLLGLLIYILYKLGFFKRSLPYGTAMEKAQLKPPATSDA
Chain of alpha-5-beta-1 integrin (P05556 21-798): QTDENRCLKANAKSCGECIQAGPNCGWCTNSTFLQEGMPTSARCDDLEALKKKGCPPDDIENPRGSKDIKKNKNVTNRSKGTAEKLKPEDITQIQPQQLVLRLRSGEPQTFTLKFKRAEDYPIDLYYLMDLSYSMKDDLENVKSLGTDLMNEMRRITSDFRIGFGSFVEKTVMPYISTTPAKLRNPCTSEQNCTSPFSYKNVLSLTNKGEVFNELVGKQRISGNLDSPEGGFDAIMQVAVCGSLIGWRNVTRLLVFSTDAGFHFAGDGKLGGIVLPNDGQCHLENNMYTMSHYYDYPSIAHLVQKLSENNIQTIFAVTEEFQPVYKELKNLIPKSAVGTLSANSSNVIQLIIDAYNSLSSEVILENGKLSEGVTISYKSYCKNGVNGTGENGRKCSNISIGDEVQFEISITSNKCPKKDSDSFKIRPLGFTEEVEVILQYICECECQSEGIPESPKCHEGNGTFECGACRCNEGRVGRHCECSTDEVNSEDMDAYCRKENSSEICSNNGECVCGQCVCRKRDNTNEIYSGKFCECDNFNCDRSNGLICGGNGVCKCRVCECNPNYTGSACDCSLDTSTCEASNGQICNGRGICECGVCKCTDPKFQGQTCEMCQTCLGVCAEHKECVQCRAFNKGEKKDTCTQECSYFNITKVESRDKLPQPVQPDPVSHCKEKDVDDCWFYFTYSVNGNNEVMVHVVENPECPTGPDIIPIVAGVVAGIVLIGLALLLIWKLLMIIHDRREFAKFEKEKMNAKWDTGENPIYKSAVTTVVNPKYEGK

Compound	IC50 [1]	IC50 [2]
N=C(N)Nc1cccc(C(=O)NCC(=O)NC[C@H](NC(=O)c2c(Cl)cc(N3CCOCC3)cc2Cl)C(=O)O)c1		< 100 nM
O=C(CNC(=O)c1cccc(NC2=NCCCN2)c1)NC[C@H](NC(=O)c1c(Cl)cc(-c2ccccc2)cc1Cl)C(=O)O [SU15210-0147-01, (S)-2-(3,5-dichlorobiphenyl-4-ylcarboxamido)-3-(2-(3-(1,4,5,6-tetrahydropyrimidin-2-ylamino)benzamido)acetamido)propanoic acid]	< 100 nM	
N=C(N)Nc1ccc2c(c1)C(NCC(=O)NC[C@H](NC(=O)c1c(Cl)cccc1Cl)C(=O)O)CCO2 (stereo partly drawn)		< 1000 nM
N=C(N)Nc1ccc2ncn(CCC(=O)NC[C@H](NC(=O)c3c(Cl)cccc3Cl)C(=O)O)c2c1		< 10000 nM
CS(=O)(=O)c1ccc(-c2cc(Cl)c(C(=O)N[C@@H](CNC(=O)CNC(=O)c3cccc(N=C(N)N)c3)C(=O)O)c(Cl)c2)cc1 [SU15210-0110-01, (S)-2-(3,5-dichloro-4′-(methylsulfonyl)biphenyl-4-ylcarboxamido)-3-(2-(3 guanidinobenzamido)acetamido)propanoic acid]	< 100 nM	
Cc1ccnc(Nc2cccc(C(=O)NCC(=O)NC[C@H](NC(=O)c3c(Cl)cccc3Cl)C(=O)O)c2)c1		< 10000 nM
Cc1cccc(Cl)c1C(=O)N[C@@H](CNC(=O)CNC(=O)c1cccc(NC(=N)N)c1)C(=O)O		< 1000 nM
N=C(N)Nc1cccc(C(=O)NCC(=O)NC[C@H](NC(=O)c2c(Cl)cccc2Cl)C(=O)O)c1		< 100 nM
N#C/N=C(\N)Nc1cccc(C(=O)NCC(=O)NC[C@@H](NC(=O)c2c(Cl)cccc2Cl)C(=O)O)c1		< 10000 nM
COc1ccc(Nc2cccc(C(=O)NCC(=O)NC[C@H](NC(=O)c3c(Cl)cccc3Cl)C(=O)O)c2)nc1		< 50000 nM
N=C(N)Nc1cccc(C(=O)NCC(=O)NC[C@H](NC(=O)c2c(Cl)cc(-c3ccccc3)cc2Cl)C(=O)O)c1		< 100 nM
O=C(CNC(=O)c1cccc(NC2=NCCCN2)c1)NC[C@H](NC(=O)c1c(Cl)cccc1Cl)C(=O)O		< 100 nM
O=C(CCc1ccc2c(n1)NCCC2)NCC(=O)NC[C@H](NC(=O)c1c(Cl)cc(-c2ccccc2)cc1Cl)C(=O)O [SU15210-0151-01, (S)-2-(3,5-dichloro-[1,1′-biphenyl]-4-carboxamido)-3-(2-(3-(5,6,7,8-tetrahydro-1,8-naphthyridin-2-yl)propanamido)acetamido)propanoic acid]	101 to 1000 nM	

Results, then the compound that gave them:

IC50 [1]	IC50 [2]	Compound
101 to 1000 nM		C/N=C(\NC)Nc1cccc(C(=O)NCC(=O)NC[C@H](NC(=O)c2c(Cl)cc(-c3ccccc3)cc2Cl)C(=O)O)c1 [SU15210-0193-01, (S,E)-2-(3,5-dichlorobiphenyl-4-ylcarboxamido)-3-(2-(3-(2,3-dimethylguanidino)benzamido)acetamido)propanoic acid]
< 100 nM		COC(=O)[C@H](CNC(=O)CNC(=O)c1cc(C#N)cc(N/C(=N/C(=O)OC(C)(C)C)NC(=O)OC(C)(C)C)c1)NC(=O)c1c(Cl)cc(-c2ccccc2)cc1Cl [SU15210-0206-01]
101 to 1000 nM		C[C@@H](NC(=O)c1cccc(NC2=NCC(F)CN2)c1)C(=O)NC[C@H](NC(=O)c1c(Cl)cc(-c2ccccc2)cc1Cl)C(=O)O (stereo partly drawn) [SU15210-0254, (2S)-2-[(2,6-dichloro-4-phenyl-benzoyl)amino]-3-[[(2R)-2-[[3-[(5-fluoro-1,4,5,6-tetrahydropyrimidin-2-yl)amino]benzoyl]amino]propanoyl]amino]propanoic acid]
< 100 nM		O=C(CNC(=O)c1cccc(NC2=NCC(F)(F)CN2)c1)NC[C@H](NC(=O)c1c(Cl)cc(-c2ccccc2)cc1Cl)C(=O)O [SU15210-0200, (S)-2-(3,5-dichlorobiphenyl-4-ylcarboxamido)-3-(2-(3-(5,5-difluoro-1,4,5,6-tetrahydropyrimidin-2-ylamino)benzamido)acetamido)propanoic acid]
	< 1000 nM	N#C/N=C(\N)Nc1cccc(C(=O)NCC(=O)NC[C@H](NC(=O)c2c(Cl)cccc2Cl)C(=O)O)c1 [drawing 110]
< 100 nM		O=C(CNC(=O)c1cccc(NC2=NCC(F)(F)CN2)c1)NC[C@H](NC(=O)c1c(Cl)cc(-c2ccc3cn[nH]c3c2)cc1Cl)C(=O)O [SU15210-0272-01, (S)-2-(2,6-dichloro-4-(1H-indazol-6-yl)benzamido)-3-(2-(3-(5,5-difluoro-1,4,5,6-tetrahydropyrimidin-2-ylamino)benzamido)acetamido)propanoic acid]
< 100 nM		O=C(CNC(=O)c1cccc(NC2=NCC(F)CN2)c1)NC[C@H](NC(=O)c1c(Cl)cc(-c2ccc3cn[nH]c3c2)cc1Cl)C(=O)O (stereo partly drawn) [SU15210-0241-01, (2S)-2-(2,6-dichloro-4-(1H-indazol-6-yl)benzamido)-3-(2-(3-(5-fluoro-1,4,5,6-tetrahydropyrimidin-2-ylamino)benzamido)acetamido)propanoic acid]
	< 100 nM	N#C/N=C(\N)Nc1cccc(C(=O)NCC(=O)NC[C@H](NC(=O)c2c(Cl)cccc2Cl)C(=O)O)c1 [drawing 107]
1000 to 10000 nM		CNc1cccc(CCC(=O)NCC(=O)NC[C@H](NC(=O)c2c(Cl)cc(-c3ccccc3)cc2Cl)C(=O)O)n1 [SU15210-0152-01, (S)-2-(3,5-dichlorobiphenyl-4-ylcarboxamido)-3-(2-(3-(6-(methylamino)pyridin-2-yl)propanamido)acetamido)propanoic acid]
< 100 nM		O=C(CNC(=O)c1cccc(NC2=NCC(F)CN2)c1)NC[C@H](NC(=O)c1c(Cl)cc(N2CCS(=O)(=O)CC2)cc1Cl)C(=O)O (stereo partly drawn) [SU15210-0253-01]
< 100 nM		O=C(CNC(=O)c1cccc(NC2=NCC(F)(F)CN2)c1)NC[C@H](NC(=O)c1c(Cl)cc(N2CCOCC2)cc1Cl)C(=O)O [SU15210-0271-01, (S)-2-(2,6-dichloro-4-morpholinobenzamido)-3-(2-(3-(5,5-difluoro-1,4,5,6-tetrahydropyrimidin-2-ylamino)benzamido)acetamido)propanoic acid]
< 100 nM		O=C(CNC(=O)c1cccc(NC2=NCC(F)CN2)c1)NC[C@H](NC(=O)c1c(Cl)cc(N2CCOCC2)cc1Cl)C(=O)O (stereo partly drawn) [SU15210-0248-01, (2 S)-2-(2,6-dichloro-4-morpholinobenzamido)-3-(2-(3-(5-fluoro-1,4,5,6-tetrahydropyrimidin-2-ylamino)benzamido)acetamido)propanoic acid]
< 100 nM		O=C(CNC(=O)c1cccc(NC2=NCCCS2)c1)NC[C@H](NC(=O)c1c(Cl)cc(-c2ccccc2)cc1Cl)C(=O)O [SU15210-0230-01]
101 to 1000 nM		CN(CC(=O)NC[C@H](NC(=O)c1c(Cl)cc(-c2ccccc2)cc1Cl)C(=O)O)C(=O)c1cccc(NC(=N)N)c1 [SU15210-0202-01, (S)-2-(3,5-dichlorobiphenyl-4-ylcarboxamido)-3-(2-(3 guanidino-N-methylbenzamido)acetamido)propanoic acid]
